Results on 30 molecules are retold here after patent publication US20240166652A1, “MODULATORS OF THE INTEGRATED STRESS PATHWAY” (Calico Life Sciences LLC, priority 2017, published 2024).

The assay concerns ATF4 luciferase reporter in HEK293T cells. Briefly: ATF4-Luc assay (ATF4 luciferase reporter, tunicamycin-treated HEK293T cells). Particulars: Homo sapiens, HEK-293T; HEK293T cells carrying the ATF4 luciferase reporter, 1 μg/mL tunicamycin, 7 hours. The format is cell-based, human. In general terms: Reporter assays use an easily measured gene product as a stand-in for the process of interest.

As a reminder, the EC50 is the concentration at which the effect is half-maximal. Take `CN1C(=O)COc2c(OCC(=O)NC34CCC(NC(=O)COc5ccc(Cl)c(F)c5)(CC3)[C@@H](O)C4)cc(Cl)cc21` [Compound 752, 2-(4-chloro-3-fluorophenoxy)-N-[(2S)-4-{2-[(6-chloro-4-methyl-3-oxo-3,4-dihydro-2H-1,4-benzoxazin-8-yl)oxy]acetamido}-2-hydroxybicyclo[2.2.2]octan-1-yl]acetamide]: the EC50 was in the range of 500 to 2000 nM.
On to `Cc1cccc(CCOCC(=O)NC23CC(NC(=O)COc4ccc(Cl)c(Cl)c4)(C2)C3)c1` [Compound 152, 2-(3,4-dichlorophenoxy)-N-(3-{2-[2-(3-methylphenyl)ethoxy]-acetamido}bicyclo[1.1.1]pentan-1-yl)acetamide], for which the EC50 was 50 to 250 nM.
The same measure for `COc1cncc(OCC(=O)NC23CCC(NC(=O)COc4ccc(Cl)c(F)c4)(CC2)[C@@H](O)C3)c1` [Compound 675, 2-(4-chloro-3-fluorophenoxy)-N-[(2S)-2-hydroxy-4-{2-[(5-methoxypyridin-3-yl)oxy]acetamido}bicyclo[2.2.2]octan-1-yl]acetamide]: 10 to 50 nM; for `O=C(COc1cc(F)c2cn[nH]c2c1)NC12CCC(NC(=O)COc3ccc(C(F)(F)F)nc3)(CC1)[C@@H](O)C2` [Compound 720]: less than 10 nM.
To `O=C(COc1ccc(Cl)c(F)c1)NC12CC(NC(=O)COc3ccc4cn[nH]c4c3)(C1)C2` [Compound 108, 2-(4-chloro-3-fluorophenoxy)-N-(3-{2-[(1H-indazol-6-yl)oxy]acetamido}-bicyclo[1.1.1]pentan-1-yl)acetamide] belongs 10 to 50 nM.
For the molecule `N#Cc1ccc(COCC(=O)NC23CC(NC(=O)COc4ccc(Cl)c(Cl)c4)(C2)C3)cc1` [Compound 159, 2-[(4-cyanophenyl)methoxy]-N-{3-[2-(3,4-dichlorophenoxy)acetamido]-bicyclo[1.1.1]pentan-1-yl}acetamide], the EC50 fell in the range of 50 to 250 nM.
For `O=C(COc1ccc(Cl)c(F)c1)NC12CCC(OCc3ccccc3)(CC1)CC2O` (stereo not drawn) [Compound 567, N-[4-(benzyloxy)-2-hydroxybicyclo[2.2.2]octan-1-yl]-2-(4-chloro-3-fluorophenoxy)acetamide], the EC50 was in the range of 500 to 2000 nM.
To `O=C(COc1ccc(Cl)c(F)c1)NC12CCC(NC(=O)COc3nc(N4CCCCC4)nc(N4CCCCC4)n3)(CC1)[C@@H](O)C2` [Compound 523, 2-(4-chloro-3-fluorophenoxy)-N-[(3S)-4-(2-{[4,6-di(piperidin-1-yl)-1,3,5-triazin-2-yl]oxy}acetamido)-3-hydroxybicyclo[2.2.2]octan-1-yl]acetamide] belongs more than 2000 nM.
As for `Cc1cc(OCC(=O)NC23CCC(NC(=O)COc4ccc(Cl)c(F)c4)(CC2)C[C@@H]3O)cnc1C` [Compound 394, 2-(4-chloro-3-fluorophenoxy)-N-[(3S)-4-{2-[(5,6-dimethylpyridin-3-yl)oxy]acetamido}-3-hydroxybicyclo[2.2.2]octan-1-yl]acetamide], the EC50 was less than 10 nM.
For `CC(C)(O)c1ccc(OCC(=O)NC23CC(NC(=O)COc4ccc(Cl)c(Cl)c4)(C2)C3)cc1` [Compound 422, 2-(3,4-dichlorophenoxy)-N-(3-{2-[4-(2-hydroxypropan-2-yl)phenoxy]acetamido}bicyclo[1.1.1]pentan-1-yl)acetamide], the EC50 was 250 to 500 nM.
Regarding `O=C(COc1ccc(C(F)(F)F)c(F)c1)NC12CCC(NC(=O)COc3ccc(F)c(F)c3)(CC1)[C@@H](O)C2` [Compound 842, 2-(3,4-difluorophenoxy)-N-[(2S)-4-{2-[3-fluoro-4-(trifluoromethyl)phenoxy]acetamido}-2-hydroxybicyclo[2.2.2]octan-1-yl]acetamide], the EC50 is less than 10 nM.
On to `Cc1ccc(OCC(=O)NC23CCC(NC(=O)COc4ccc(OC(F)(F)F)cc4)(CC2)[C@@H](O)C3)cc1F` [Compound 736, 2-(3-fluoro-4-methylphenoxy)-N-[(3S)-3-hydroxy-4-{2-[4-(trifluoromethoxy)phenoxy]acetamido}bicyclo[2.2.2]octan-1-yl]acetamide], for which the EC50 is less than 10 nM.
Take `O=C(COc1ccc(Cl)c(F)c1)NC12CC(NS(=O)(=O)Cc3ccccc3F)(C1)C2` [Compound 481, 2-(4-chloro-3-fluorophenoxy)-N-(3-{[(2-fluorophenyl)methanesulfonyl]amino}bicyclo[1.1.1]pentan-1-yl)acetamide]: the EC50 was more than 2000 nM.
For `O=C(COc1ccc(Cl)c(F)c1)NC12CC(NC(=O)COc3ccc(Cl)cc3NCCO)(C1)C2` [Compound 797, 2-(4-chloro-3-fluorophenoxy)-N-[3-(2-{4-chloro-2-[(2-hydroxyethyl)amino]phenoxy}acetamido)bicyclo[1.1.1]pentan-1-yl]acetamide], the EC50 was 50 to 250 nM.
For the molecule `COC(=O)c1cc(OCC(=O)NC23CC(NC(=O)COc4ccc5c(c4)OC(F)(F)O5)(C2)C3)ccc1Cl` [Compound 275, methyl 2-chloro-5-{2-1(3-{2-[(2,2-difluoro-2H-1,3-benzodioxol-5-yl)oxy]acetamido}bicyclo[1.1.1]pentan-1-yl)aminol-2-oxoethoxy}benzoate], the EC50 fell in the range of 500 to 2000 nM.
As for `COCc1cc(OCC(=O)NC23CCC(NC(=O)COc4ccc(Cl)c(F)c4)(CC2)[C@@H](O)C3)ccc1Cl` [Compound 757, 2-(4-chloro-3-fluorophenoxy)-N-[(2S)-4-{2-[4-chloro-3-(methoxymethyl)phenoxy]acetamido}-2-hydroxybicyclo[2.2.2]octan-1-yl]acetamide], the EC50 was in the range of 10 to 50 nM.
The same measure for `O=C(COc1ccc2c(c1)OC(F)(F)C(F)(F)O2)NC12CCC(NC(=O)COc3ccc(Cl)c(F)c3)(CC1)[C@@H](O)C2` [Compound 702, 2-(4-chloro-3-fluorophenoxy)-N-[(2S)-2-hydroxy-4-{2-[(2,2,3,3-tetrafluoro-2,3-dihydro-1,4-benzodioxin-6-yl)oxy]acetamido}bicyclo[2.2.2]octan-1-yl]acetamide]: less than 10 nM; for `O=C(CNC(=O)c1ccccc1)NC12CC(NC(=O)COc3ccc(Cl)c(F)c3)(C1)C2` [Compound 492, N-[2-({3-[2-(4-chloro-3-fluorophenoxy)acetamido]bicyclo[1.1.1]pentan-1-yl}amino)-2-oxoethyl]benzamide]: more than 2000 nM; for `O=C(COc1ccc(OC(F)(F)F)c(F)c1)NC12CCC(NC(=O)COc3ccc(F)cc3)(CC1)[C@@H](O)C2` [Compound 762, 2-(4-fluorophenoxy)-N-[(2S)-4-{2-[3-fluoro-4-(trifluoromethoxy)phenoxy]acetamido}-2-hydroxybicyclo[2.2.2]octan-1-yl]acetamide]: less than 10 nM.
As for `COCC(=O)Nc1cc(Cl)ccc1OCC(=O)NC12CC(NC(=O)COc3ccc(Cl)c(F)c3)(C1)C2` [Compound 800, 2-(4-chloro-3-fluorophenoxy)-N-(3-{2-[4-chloro-2-(2-methoxyacetamido)phenoxy]acetamido}bicyclo[1.1.1]pentan-1-yl)acetamide], the EC50 fell in the range of 50 to 250 nM.
Turning to `O=C(COc1ccc(Cl)c(F)c1)NC12CCC(NC(=O)COc3ccc(Cl)c(F)c3)(CC1)N(CCO)C2=O` [Compound 679, N,N′-[2-(2-hydroxyethyl)-3-oxo-2-azabicyclo[2.2.2]octane-1,4-diyl]bis[2-(4-chloro-3-fluorophenoxy)acetamide]], the EC50 is 50 to 250 nM.
As to `CN(C(=O)COc1ccc(Cl)c(Cl)c1)C12CC(NC(=O)COc3ccc(Cl)cc3)(C1)C2` [Compound 199, N-{3-[2-(4-chlorophenoxy)acetamido]bicyclo[1.1.1]pentan-1-yl}-2-(3,4-dichlorophenoxy)-N-methylacetamide], the EC50 is 50 to 250 nM.
To `O=C(COc1ccc(OC(F)(F)F)cc1)NC12CCC(NC(=O)COc3ccc(Cl)cc3)(CC1)[C@@H](O)C2` [Compound 783, 2-(4-chlorophenoxy)-N-[(2S)-2-hydroxy-4-{2-[4-(trifluoromethoxy)phenoxy]acetamido}bicyclo[2.2.2]octan-1-yl]acetamide] belongs less than 10 nM; to `O=C(/C=C/c1ccc(Cl)cc1)NC12CC(NC(=O)COc3ccc(Cl)c(F)c3)(C1)C2` [Compound 294, (2E)-N-{3-[2-(4-chloro-3-fluorophenoxy)acetamido]bicyclo[1.1.1]pentan-1-yl}-3-(4-chlorophenyl)prop-2-enamide], 10 to 50 nM; to `Cn1ccc(OCC(=O)NC23CC(NC(=O)COc4ccc(Cl)c(F)c4)(C2)C3)n1` [Compound 381, 2-(4-chloro-3-fluorophenoxy)-N-(3-{2-[(1-methyl-1H-pyrazol-3-yl)oxy]acetamido}bicyclo[1.1.1]pentan-1-yl)acetamide], 500 to 2000 nM.
The same measure for `O=C(COc1ccc(OC(F)(F)F)c(F)c1)NC12CCC(NC(=O)COc3ccc(F)c(F)c3)(CC1)[C@@H](O)C2` [Compound 763, 2-(3,4-difluorophenoxy)-N-[(2S)-4-{2-[3-fluoro-4-(trifluoromethoxy)phenoxy]acetamido}-2-hydroxybicyclo[2.2.2]octan-1-yl]acetamide]: less than 10 nM; for `Cc1cccc(COCC(=O)NC23CC(NC(=O)COc4ccc(Cl)c(F)c4)(C2)C3)c1` [Compound 140, 2-(4-chloro-3-fluorophenoxy)-N-(3-{2-[(3-methylphenyl)methoxy]acetamido}-bicyclo[1.1.1]pentan-1-yl)acetamide]: 50 to 250 nM; for `CCc1ccc(OCC(=O)NC23CCC(NC(=O)COc4ccc(F)c(F)c4)(CC2)[C@@H](O)C3)cc1` [Compound 778, 2-(3,4-difluorophenoxy)-N-{(2S)-4-[2-(4-ethylphenoxy)acetamido]-2-hydroxybicyclo[2.2.2]octan-1-yl}acetamide]: 10 to 50 nM.
For `CS(=O)(=O)c1ccc(CC(=O)NC23CCC(NC(=O)COc4ccc(Cl)c(F)c4)(CC2)CC3O)cc1` (stereo not drawn) [Compound 325, 2-(4-chloro-3-fluorophenoxy)-N-(3-hydroxy-4-{2-[4-(methanesulfonyl)phenyl]acetamido}bicyclo[2.2.2]octan-1-yl)acetamide], the EC50 was more than 2000 nM.
To `O=C(COc1ccccc1)NC12CC(NC(=O)COc3ccc(Cl)c(F)c3)(C1)C2` [Compound 398, 2-(4-chloro-3-fluorophenoxy)-N-[3-(2-phenoxyacetamido)bicyclo[1.1.1]pentan-1-yl]acetamide] belongs 10 to 50 nM.
